Experimental data from patent publication US5554615A, “Condensed pyrimidine derivative” (Eisai Co., Ltd., priority 1991, dated 1996).
Read-outs that look alike come from different tables or passages of the source.

Tests used:
Mouse P388 leukemia = assay: Activity against experimental tumor transplanted to mouse (P388 leukemia); type: in vivo; conditions: for MST / T/C: i.p., once a day for four days; for ratio of the maximum effective dose to the minimum one: tumor bearing mouse (CDF1)
Description: P388 cells (1×10^6) were inoculated into the abdominal cavity of a female CDF1 mouse of 7 weeks of age and a test drug was administered to the mouse once a day for four days from the next day.
Each test drug was administered intraperitoneally in a state dissolved or suspended in a 4% solution of NaHCO3 in physiological saline, while only a 4% solution of NaHCO3 in physiological saline was administered to a control group. Each control group was composed of ten mice, while each medicated group was composed of six mice. The antitumor activity was evaluated based on the T/C value calculated according to the following formula: [formula]
The measurement was conducted according to the method of R. I. Geran et al. (see Cancer Chemotherapy Reports (Part 3), 31 (1972)).

Mouse leukemic cell P388 = assay: Inhibitory activity against proliferation of oncocyte, P388 (MTT method); type: cell-based; conditions: 72 h
Description: (§1) Mouse leukemic cell P388, mouse colonic cancer cell Colon 38, human rhinopharyngeal cancer cell KB and human lung cancer cell A549 were used as the oncocytes. […] The microplate was placed in a carbon dioxide incubator containing 5% of CO2 and incubated at 37° C. for one day. The DMSO solution of the compound according to the present invention was diluted with the culture medium to prepare the serial dilutions of the compound. These dilutions were added to the above wells in a predetermined amount. The resulting plate was cultured at 37° C. for 3 days. […] The number of viable cells was determined according to the method of M. C.

[1] = system: mouse colonic cancer cell Colon 38; assay: Inhibitory activity against proliferation of oncocyte, Colon 38 (MTT method); type: cell-based; conditions: 72 h
Description: as §1

[2] = target: T1, dihydrofolate reductase (DHFR) (Mus musculus, UniProt P00375); assay: Inhibitory activity against dihydrofolate reductase (DHFR); type: biochemical
T1 construct: DHFR was prepared from mouse leukemic cell P388; endogenous in cells; host or cells: P388 mouse leukemia cells (enzyme purified from the cells)
T1 sequence (P00375 1-187): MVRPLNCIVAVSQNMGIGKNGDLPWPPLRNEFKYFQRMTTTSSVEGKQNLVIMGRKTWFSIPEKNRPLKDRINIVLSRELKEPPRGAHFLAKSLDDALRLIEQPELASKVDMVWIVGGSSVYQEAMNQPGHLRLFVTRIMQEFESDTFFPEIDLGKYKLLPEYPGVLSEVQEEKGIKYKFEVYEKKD
Description: DHFR was prepared from mouse leukemic cell P388 according to the method of J. M. Whiteley et al. [see Arch.
A solution of purified DHFR was added to a solution comprising a potassium phosphate buffer solution (pH: 7.5, 75 mM), mercaptoethanol (7.5 mM) and NADPH (0.25 mM) to make up to a total amount of 0.57 mi. Each of the serial dilutions of the compound according to the present invention in an amount of 0.015 ml was added to the mixture prepared above. […] The obtained mixtures were kept at 37° C. for 5 minutes to conduct a reaction.

[3] = system: human lung cancer cell A549; assay: Inhibitory activity against proliferation of oncocyte, A549 (MTT method); type: cell-based; conditions: 72 h
Description: as §1

[4] = system: human rhinopharyngeal cancer cell KB; assay: Inhibitory activity against proliferation of oncocyte, KB (MTT method); type: cell-based; conditions: 72 h
Description: as §1

LX-1 = assay: Inhibitory activity against proliferation of oncocyte, LX-1; type: cell-based; conditions: Homo sapiens, 72 h, Table 2-B, 3 days
[5] = system: dihydrofolate reductase (DHFR); conditions: in words; cited from earlier work
[6] = in words; cited from earlier work
[7] = read-out: 50% cell proliferation-inhibitory concentration (IC50), Table 2-A, 3 days
[8] = read-out: 50% cell proliferation-inhibitory concentration (IC50), Table 2-A, KB, 3 days
[9] = Table 2-B, 3 days, read-out: Proliferation-inhibitory activity IC50
[10] = Table 2-B, KB, 3 days, read-out: Proliferation-inhibitory activity IC50

Structure (SMILES) | MST (Mouse P388 leukemia; Table 3-A, 50.0 mg/kg) | T/C (Mouse P388 leukemia; Table 3-A, 50.0 mg/kg) | IC50 (Mouse leukemic cell P388; [7]) | IC50 [1, 7] | IC50 [2] | IC50 [3, 7] | IC50 [4, 8] | T/C (Mouse P388 leukemia; Table 3-B, 0.78 mg/kg) | T/C (Mouse P388 leukemia; Table 3-B, 3.13 mg/kg) | IC50 (Mouse leukemic cell P388; [9]) | IC50 [1, 9] | IC50 [3, 9] | IC50 [4, 10] | also measured
Nc1nc(N)c2c(ccn2CCCc2ccc(C(=O)N[C@@H](CCC(=O)O)C(=O)O)cc2)n1 [Ex. 2, N-[4-[3-(2,4-Diaminopyrrolo[3,2-d]pyrimidin-5-yl)propyl]benzoyl]-L-glutamat] | 14.8 ± 0.83 | 164% | 12 nM | 40 nM | 97 nM | 19 nM | 9.8 nM |  |  |  |  |  |  | MST (Mouse P388 leukemia; Table 3-A, 3.13 mg/kg): 13.3 ± 0.47; T/C (Mouse P388 leukemia; Table 3-A, 3.13 mg/kg): 148%; MST (Mouse P388 leukemia; Table 3-A, 6.25 mg/kg): 13.5 ± 0.50; T/C (Mouse P388 leukemia; Table 3-A, 6.25 mg/kg): 150%; MST (Mouse P388 leukemia; Table 3-A, 25.0 mg/kg): 14.0 ± 0.71; T/C (Mouse P388 leukemia; Table 3-A, 25.0 mg/kg): 156%; MST (Mouse P388 leukemia; Table 3-A, 100.0 mg/kg): 14.8 ± 0.83; T/C (Mouse P388 leukemia; Table 3-A, 100.0 mg/kg): 164%; MST (Mouse P388 leukemia; Table 3-A, 200.0 mg/kg): 16.0 ± 0.82; T/C (Mouse P388 leukemia; Table 3-A, 200.0 mg/kg): 178%; ratio of the maximum effective dose to the minimum one (Mouse P388 leukemia): about 60
CC(CCn1ccc2nc(N)nc(N)c21)c1ccc(C(=O)N[C@@H](CCC(=O)O)C(=O)O)cc1 (stereo partly drawn) [Ex. 4, N-[4-[3-(2,4-Diaminopyrrolo[3,2-d]pyrimidin-5-yl)-1-methylpropyl]benzoyl]-L-glutamate] | 18.5 ± 1.12 | 185% | 16 nM | 129 nM | 90 nM | 63 nM | 31 nM |  |  |  |  |  |  | 
CCC(CCn1ccc2nc(N)nc(N)c21)c1ccc(C(=O)N[C@@H](CCC(=O)O)C(=O)O)cc1 (stereo partly drawn) [Ex. 6, N-[4-[3-(2,4-Diaminopyrrolo[3,2-d]pyrimidin-5-yl)-1-ethylpropyl]benzoyl]-L-glutamate] |  |  | 12 nM | 340 nM | 1000 nM | 940 nM | 30 nM |  |  |  |  |  |  | 
CCC(Cn1ccc2nc(N)nc(N)c21)c1ccc(C(=O)N[C@@H](CCC(=O)O)C(=O)O)cc1 (stereo partly drawn) [Ex. 9, N-[4-[2-(2,4-Diaminopyrrolo[3,2-d]pyrimidin-5-yl)-1-ethylethyl]benzoyl]-L-glutamate] | 15.0 ± 0.71 | 167% | 17 nM | 39 nM | 30 nM | 100 nM | 32 nM |  |  |  |  |  |  | MST (Mouse P388 leukemia; Table 3-A, 0.78 mg/kg): 16.3 ± 1.02; T/C (Mouse P388 leukemia; Table 3-A, 0.78 mg/kg): 181%; MST (Mouse P388 leukemia; Table 3-A, 3.13 mg/kg): 14.8 ± 0.83; T/C (Mouse P388 leukemia; Table 3-A, 3.13 mg/kg): 164%; ratio of the maximum effective dose to the minimum one (Mouse P388 leukemia): about 60
Nc1nc(N)c2c(n1)CCC2CCc1ccc(C(=O)N[C@@H](CCC(=O)O)C(=O)O)cc1 (stereo partly drawn) [Ex. 103, N-{4-[2-(2,4-diamino-6,7-dihydro-5H-cyclopenta[d]pyrimidin-5-yl)ethyl]benzoyl}-L-glutamic] |  |  |  |  | 72 nM |  |  | 129% | 135% | 7.7 nM | 8.9 nM | 9.8 nM | 3.8 nM | T/C (Mouse P388 leukemia; Table 3-B, 50 mg/kg): 148%
Nc1nc(N)c2c(n1)CCC2CCCc1ccc(C(=O)N[C@@H](CCC(=O)O)C(=O)O)s1 (stereo partly drawn) [Ex. 105, N-{5-[3-(2,4-diamino-6,7-dihydro-5H-cyclopenta[d]pyrimidin-5-yl)propyl]-2-thenoyl}-L-glutamic acid] |  |  |  |  | 4 nM |  |  | 176% | 151% | 1.8 nM | 0.87 nM | 2.4 nM | 0.92 nM | T/C (Mouse P388 leukemia; Table 3-B, 0.05 mg/kg): 126%; T/C (Mouse P388 leukemia; Table 3-B, 0.20 mg/kg): 151%; IC50 (LX-1): 0.67 nM
Nc1nc(N)c2c(n1)CCC2CCCc1ccc(C(=O)N[C@@H](CCC(=O)O)C(=O)O)cc1 (some centres unmarked) [Ex. 108] |  |  |  |  |  |  |  | 150% | 170% | 2.7 nM | 4.1 nM | 9.3 nM | 1.6 nM | T/C (Mouse P388 leukemia; Table 3-B, 0.20 mg/kg): 133%
CN(Cc1cnc2nc(N)nc(N)c2n1)c1ccc(C(=O)N[C@@H](CCC(=O)O)C(=O)O)cc1 [MTX, Methotrexate, reference compound] |  |  | 16 nM | 60 nM |  | 80 nM |  |  |  | 22 nM | 28 nM | 88 nM | 11 nM | inhibitory activity against dihydrofolate reductase (DHFR) [5]: high inhibitory activity; potent adverse effects [6]: bone marrow suppression and degradation of the intestinal epithelium; IC50 ([4]; read-out: 50% cell proliferation-inhibitory concentration (IC50)): 20 nM
